Values of other authors as cited in article PMC10166914, “GTN057, a komaroviquinone derivative, induced myeloma cells' death in vivo and inhibited c‐MET tyrosine kinase” (Cancer Medicine, 2023).

Test system: MUM24 cells
Parameters: method as in PMID 28882484
Settings: read-out: IC50 antiproliferative activity; cited from earlier work

Q: Which IC50 does the source give for `COc1c(O)c2c(c(O)c1C(C)C)C(=O)CC1C(C)(C)CCC[C@]1(O)C2` (stereo partly shown) [GTN054] here?
A: The IC50 was 6.13 µM.
